# Peptide text beside a SMILES is read from it. * marks the point of attachment. Cbz = O=C(OCc1ccccc1)*
# Legend:
# [1] = tested on: proteasome in packed whole blood lysate; test: Dose response on PWBL lysates in vitro; assay type: biochemical, mouse; settings: lysates of vehicle and 0.1 mg/kg Salinosporamide A treated animals
# Source text: Palayoor et al., Oncogene 18:7389-94 (1999).
# [2] = tested on: LeTx-induced cytotoxicity of RAW264.7 cells; settings: cited from earlier work
# [3] = Stability in solution; assay type: physicochemical; settings: converted to compound VI-1B, mixture 7:3
# Procedure: The reaction mixture was stirred at room temperature for about 3 hours. The solvent was evaporated from the reaction mixture to yield the compound of Formula II-48, which was purified by reversed phase HPLC using Ace 5u C18 column (150 mm×22 mm ID) with a solvent gradient of 10% to 70% H2O/Acetonitrile over 15 min, 70 to 100% Acetonitrile over 5 min, holding at 100% Acetonitrile for 4 min, at a flow rate of 14.5 ml/min. Diode array detector was used to monitor the purification process. Compound II-48 (10 mg) eluted as a pure compound at 8.255 min. […] Compound VI-1B: UV (Acetonitrile/H2O) λmax 235 (sh) nm; ESMS, m/z 585.2 (M+H)^+.
compound,measurement,setting,value
CC[C@H](C)[C@H](NC(=O)[C@H]([C@@H](C)CC)N(C)C(C)=O)C(=O)N[C@H](C(=O)N[C@@H](CC(C)C)C(=O)[C@@]1(C)CO1)[C@@H](C)O [Epoxomicin],hydrolysis of the proteasome substrate in PWBL lysates,[1],dose dependent inhibition in the hydrolysis of the proteasome substrate
CC(C)C[C@@H](C=O)NC(=O)[C@H](CC(C)C)NC(=O)[C@H](CC(C)C)NC(=O)OCc1ccccc1 [MG132] (Cbz-Leu-Leu-Leu-aldehyde),EC50,[2],3 µM
CC(=O)N[C@@H](CSC(=O)[C@]1([C@@H](O)C(C)C)NC(=O)[C@H](C)[C@@H]1O)C(=O)O [Lactacystin],EC50,[2],3 µM
C[C@]1(O)[C@@H](CCCl)C(=O)N[C@]1(C(=O)SCC(NC(=O)CCC(N)C(=O)O)C(=O)NCC(=O)O)[C@@H](O)[C@@H]1C=CCCC1 (stereo partly shown) [Formula II-48],stability in solution,[3],unstable in solution

# Source: patent US7572606B1 (Nereus Pharmaceuticals, Inc., priority 2005, dated 2009)
